Patent US20070066590A1, “Phenyl-and pyridylpiperidine-derivatives as modulators of glucose metabolism” (priority 2003, published 2007)

What was measured:
RUP3 = molecular target: T1, RUP3 (Homo sapiens, UniProt Q8TDV5); assay: 96-Well Cyclic AMP Membrane Assay for RUP3 (Membrane Cyclase Assay); type: biochemical; conditions: RUP3 membranes, cAMP Flashplate
T1 construct: expressed in transfected cells
T1 sequence (Q8TDV5 with tags, fused parts or gaps): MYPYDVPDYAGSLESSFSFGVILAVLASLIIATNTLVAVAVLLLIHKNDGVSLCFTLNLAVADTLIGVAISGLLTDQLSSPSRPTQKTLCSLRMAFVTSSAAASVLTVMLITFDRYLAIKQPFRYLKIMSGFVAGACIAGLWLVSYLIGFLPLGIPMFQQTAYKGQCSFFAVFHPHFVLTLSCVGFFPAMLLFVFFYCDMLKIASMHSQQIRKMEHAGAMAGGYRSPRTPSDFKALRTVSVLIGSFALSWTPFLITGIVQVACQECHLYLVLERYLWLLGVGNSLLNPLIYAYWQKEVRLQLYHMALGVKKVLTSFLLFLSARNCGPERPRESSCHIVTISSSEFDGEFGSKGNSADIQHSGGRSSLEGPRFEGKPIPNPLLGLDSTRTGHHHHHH
Method: 96-Well Cyclic AMP Membrane Assay for RUP3
• 1) Adenlyl cyclase Activation Flashplate Assay kit from Perkin Elmer—96 wells (SMP004B) and ^125I tracer (NEX130) which comes with the kit. […] All buffers and membranes should be kept cold (in ice bucket) while performing assay. 20 mM Hepes, pH7.4 1 mM MgCl2 100 mM NaCl 2× Regeneration Buffer (make in binding buffer): 20 mM Phosphocreatine (1.02 gm/200 ml binding buffer) 20 units Creatine phosphokinase (4 mg/200 ml) 20 uM GTP (make up 10.46 mg/ml in binding buffer and add 200 ul/200 ml) 0.2 mM ATP (22.04 mg/200 ml) […] (44.4 mg IBMX dissolved in 1 ml 100% DMSO first and then add the entire amount to 200 ml of buffer). Regeneration buffer can be aliquotted into 40-45 ml portions (in 50 ml sterile tubes) and kept frozen for up to 2 months. Simply put the tube in a beaker with room temperature water to thaw out the regeneration buffer on the day of the assay. […] (Prior to the start of the assay, the frozen membrane pellets for both RUP3 and CMV (cells transfected with an expression plasmid containing no RUP3 sequences), are suspended in binding buffer, usually 1 ml binding buffer for 1 plate of membranes. The membranes are kept in ice all the time, and a polytron (Brinkmann polytron, model # PT-3100) is used (setting 6-7, for 15-20 seconds) to obtain a homogeneous membrane suspension.) Protein concentration is determined by Bradford protein assay kit using instructions given in the kit, using the standard supplied with the kit as a reference. […]

isolated rat islets = assay: Stimulation of insulin secretion in isolated rat islets; type: cell-based; conditions: 10 μM compound; increased glucose (e.g. 300 mg/dl)
Method: E. Stimulation of Insulin Secretion in Isolated Rat Islets
As with HIT-T15 cells, it is known that stimulation of cAMP in isolated rat islets causes an increase in insulin secretion when the glucose concentration in the culture media is changed from 60 mg/dl to 300 mg/dl. RUP3 is an endogenously expressed GPCR in the insulin-producing cells of rat islets. Thus, RUP3 ligands can also be tested for their ability to stimulate GSIS in rat islet cultures. This assay is performed as follows: • A. Select 75-150 islet equivalents (IEQ) for each assay condition using a dissecting microscope. Incubate overnight in low-glucose culture medium (Optional.) • B. Divide the islets evenly into triplicate samples of 25-40 islet equivalents per sample. Transfer to 40 μm mesh sterile cell strainers in wells of a 6-well plate with 5 ml of low (60 mg/dl) glucose Krebs-Ringers Buffer (KRB) assay medium. • C. Incubate 30 minutes (1 hour if overnight step skipped) at 37° C. and 5% CO2. Save the supernatants if a positive control for the RIA is desired. • D. Move strainers with islets to new wells with 5 ml/well low glucose KRB. […] Freeze and store at <−20° C. until insulin concentrations can be determined. • I. Insulin determinations are done as above, or by Linco Labs as a custom service, using their rat insulin RIA (Cat # RI-13K). […]

HIT-T15 cells [1] = assay: Stimulation of insulin secretion in HIT-T15 cells (GSIS); type: cell-based, hamster; conditions: 15 mM glucose; level comparable to forskolin
Method: D. Stimulation of Insulin Secretion in HIT-T15 Cells
It is known that stimulation of cAMP in HIT-T15 cells causes an increase in insulin secretion when the glucose concentration in the culture media is changed from 3 mM to 15 mM. Thus, RUP3 ligands can also be tested for their ability to stimulate glucose-dependent insulin secretion (GSIS) in HIT-T15 cells. In this assay, 30,000 cells/well in a 12-well plate are incubated in culture media containing 3 mM glucose and no serum for 2 hours. The media is then changed; wells receive media containing either 3 mM or 15 mM glucose, and in both cases the media contains either vehicle (DMSO) or RUP3 ligand at a concentration of interest Some wells receive media containing 1 uM forskolin as a positive control. All conditions are tested in triplicate. Cells are incubated for 30 minutes, and the amount of insulin secreted into the media is determined by ELISA, using a kit from either Peninsula Laboratories (Cat # ELIS-7536) or Crystal Chem Inc. (Cat # 90060).
(§1) In the first of these, RUP3 agonists are used to stimulate HIT-T15 cells, which express RUP3 at significant levels, as indicated in the Northern blot shown in FIG. 4. […] In this example a RUP3 agonist can be evaluated for its ability to stimulate cAMP production in HIT cells in comparison to the level seen with the adenyl cyclase activator forskolin.

HIT-T15 cells [2] = assay: Stimulation of cAMP in HIT-T15 cells; type: cell-based, hamster; conditions: compared with adenyl cyclase activator forskolin
Method: C. Stimulation of cAMP in HIT-T15 Cells
HIT-T15 (ATCC CRL#1777) is an immortalized hamster insulin-producing cell line. These cells express RUP3 and therefore can be used to assess the ability of RUP3 ligands to stimulate or inhibit cAMP accumulation via its endogenously expressed receptor. In this assay, cells are grown to 80% confluence and then distributed into a 96-well Flashplate (50,000 cells/well) for detection of cAMP via a “cAMP Flashplate Assay” (NEN, Cat # SMP004). Briefly, cells are placed into anti-cAMP antibody-coated wells that contain either vehicle, the test ligand(s) at a concentration of interest, or 1 uM forskolin. The latter is a direct activator of adenylyl cyclase and serves as a positive control for stimulation of cAMP in HIT-T15 cells. All conditions are tested in triplicate. […] Bound ^125I-cAMP is detected using a Wallac Microbeta Counter. The amount of cAMP in each sample is determined by comparison to a standard curve, obtained by placing known concentrations of cAMP in some wells on the plate.
as §1

CC(=O)CCc1ccc(Oc2ccc([N+](=O)[O-])c(N3CCC(Sc4ccccn4)CC3)c2)cc1 [Compound A51, 4-(4-{4-Nitro-3-[4-(pyridin-2-ylsulfanyl)-piperidin-1-yl]-phenoxy}-phenyl)-butan-2-one]
IC50 (RUP3): 346 nM

CCCC1CCN(c2cc(Oc3ccc(C(=O)CC(=O)OC)cc3)ccc2[N+](=O)[O-])CC1 [Compound A30, 3-{4-[4-Nitro-3-(4-propyl-piperidin-1-yl)-phenoxy]-phenyl}-3-oxo-propionic acid methyl ester]
glucose-dependent insulin release in isolated rat islets (isolated rat islets): enhance glucose-dependent insulin release
IC50 (RUP3): 185 nM
insulin secretion in HIT cells (HIT-T15 cells [1]): stimulate insulin secretion
stimulation of cAMP in HIT-T15 cells (HIT-T15 cells [2]): robust stimulator of cAMP

O=[N+]([O-])c1ccc(Oc2ccc(-n3cncn3)cc2)cc1N1CCC(Sc2ccccn2)CC1 [Compound A52, 2-{1-[2-Nitro-5-(4-[1,2,4]triazol-1-yl-phenoxy)-phenyl]-piperidin-4-ylsulfanyl}-pyridine]
IC50 (RUP3): 230 nM
